Measured values reported in patent publication US12139503B2, “Borylated amino acid compositions for use in boron neutron capture therapy and methods thereof” (TAE Life Sciences, priority 2020, dated 2024).
Like-named read-outs stand apart in the source and are kept apart here.

Legend:
[1] = target: T1, LAT-1 (Homo sapiens, UniProt Q01650); experiment: LAT-1 mediated competition studies, boron uptake in FaDu cells; format: cell-based; settings: HBSS, 2 hours, 37° C.
T1 construct: host or cells: FaDu human nasopharyngeal carcinoma cells
T1 sequence (Q01650 whole entry): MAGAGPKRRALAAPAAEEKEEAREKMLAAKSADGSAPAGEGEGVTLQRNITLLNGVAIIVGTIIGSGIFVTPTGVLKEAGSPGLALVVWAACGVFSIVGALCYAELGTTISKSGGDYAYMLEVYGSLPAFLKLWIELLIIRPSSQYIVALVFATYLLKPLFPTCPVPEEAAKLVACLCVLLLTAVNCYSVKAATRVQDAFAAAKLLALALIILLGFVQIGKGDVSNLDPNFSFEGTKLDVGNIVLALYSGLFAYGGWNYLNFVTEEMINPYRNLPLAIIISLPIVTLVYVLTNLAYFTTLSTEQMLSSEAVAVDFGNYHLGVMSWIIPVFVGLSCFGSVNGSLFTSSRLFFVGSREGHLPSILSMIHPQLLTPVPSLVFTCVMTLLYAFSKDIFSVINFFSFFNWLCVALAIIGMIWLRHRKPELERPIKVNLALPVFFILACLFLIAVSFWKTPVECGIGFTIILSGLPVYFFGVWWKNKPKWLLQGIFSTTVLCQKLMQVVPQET
T1 sequence (P08195 102-630 partner): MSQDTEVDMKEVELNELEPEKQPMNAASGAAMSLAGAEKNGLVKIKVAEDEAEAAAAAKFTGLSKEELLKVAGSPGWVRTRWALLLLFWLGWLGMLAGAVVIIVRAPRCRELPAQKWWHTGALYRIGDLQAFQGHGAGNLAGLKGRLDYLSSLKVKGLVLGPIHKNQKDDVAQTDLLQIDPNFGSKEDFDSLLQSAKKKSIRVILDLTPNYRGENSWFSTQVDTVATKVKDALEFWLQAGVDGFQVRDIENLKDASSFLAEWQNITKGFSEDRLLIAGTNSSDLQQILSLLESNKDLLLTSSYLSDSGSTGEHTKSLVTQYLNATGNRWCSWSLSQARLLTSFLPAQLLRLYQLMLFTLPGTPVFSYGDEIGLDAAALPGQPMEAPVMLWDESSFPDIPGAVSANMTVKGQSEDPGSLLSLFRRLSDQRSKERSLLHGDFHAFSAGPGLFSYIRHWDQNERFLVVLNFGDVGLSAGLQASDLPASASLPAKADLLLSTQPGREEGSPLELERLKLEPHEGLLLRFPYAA
From the text: (§1) The FaDu cell line is a human nasopharyngeal carcinoma cell line. The cell line was obtained from the American Type Culture Collection (“ATCC”), located at 10801 University Boulevard Manassas, VA 20110-2209 USA in 2019. It has ATCC designation of HTB-43™ and lot number 70014320. FaDu cells are propagated in DMEM culture medium supplemented with 10% fetal bovine serum with routine passage by trypsinization and reseeding. The cell line is cryopreserved in liquid nitrogen.
(§2) Additionally, boron measurement was performed by ICP OES. on an Agilent 5110 ICP-OES. The data was analyzed using Agilent's ICP Expert Software, version 7.4.2.10790. Boron was measured axially at the 249.772 nm wavelength and the internal standard Beryllium was measured axially at the 313.042 nm wavelength. Beryllium internal standard was spiked into the solution at 1:5 the flowrate before introduction to the spray chamber via a T-connector. Finally, A standard curve using 1000, 100, 10, 1 and 0 ppb of boron was used to calculate the concentration of boron in each sample.
It has been shown that the system L transporter (LAT-1) mediates the transport of L-amino acids into cells and plays a major role in the uptake of BPA in BPA-based BNCT (WONGTHAI, et. al. Cancer Sci Vol. 106, pg. 279-286, 2015). To assess whether TLS00192 is transported via LAT-1 dependent mechanism we interrogated its ability to be outcompeted by the LAT1 substrate L-Phe FaDu cells were incubated in HBSS medium for two (2) hours at 37° C. with 0.5 mM of either TLS00192 or BPA-fructose in the absence (Subset A) or presence of increasing concentrations of competitor Phe (Subset B), L-system antagonist BCH (Subset C) or LAT-1 specific inhibitor JPH203 (Subset D). The cells were harvested, and the amount of each boronated cell associated compound was determined by ICP OES. The IC50s for the respective inhibitor on each compound is also indicated. BPA was used as a positive control for LAT-1-mediated uptake.

[2] = system: intracranial tumor; settings: BNCT with beam directed to surgically exposed intracranial tumor; cited from earlier work
[3] = system: FaDu nasopharnygeal squamous carcinoma cells; experiment: Kinetic parameters of boron uptake in FaDu cells (ICP-OES); format: cell-based, human; settings: Michaelis-Menton non-linear regression
From the text: To investigate the ability of TLS00192 to deliver boron to FaDu nasopharnygeal squamous carcinoma cells, we interrogated a range of concentrations bracketing what is hypothsized to be physiologically relevant amounts for boronophenylalanine (BPA), currently the most widely studied boron drug in BNCT clinical practice.
The FaDu cell line is a human nasopharyngeal carcinoma cell line. The cell line was obtained from the American Type Culture Collection (“ATCC”), located at 10801 University Boulevard Manassas, VA 20110-2209 USA in 2019. It has ATCC designation of HTB-43™ and lot number 70014320. […]
Additionally, boron measurement was performed by ICP OES. on an Agilent 5110 ICP-OES. The data was analyzed using Agilent's ICP Expert Software, version 7.4.2.10790. Boron was measured axially at the 249.772 nm wavelength and the internal standard Beryllium was measured axially at the 313.042 nm wavelength. […]
To determine the kinetic parameters of TLS00192, Boron compounds were added to FaDu cells at the final concentration of 2.5 mM in HBSS and the cells were incubated at 37° C., in a humidified 5% CO2 atmosphere for two (2) hrs with shaking. Following two (2) hour incubation, cells were harvested and suspended in ice cold PBS and lysed in RIPA buffer and protein content determined by BCA assay. […] Results were expressed as ng boron/per mg cell protein/per minute. […]

[4] = system: FaDu cells; experiment: Cellular retention of TLS00192 and BPA-fructose in FaDu cells; format: cell-based, human; settings: sixteen (16) hours after initial 2 hour incubation
From the text: as §1, §2
Subsequently, to determine whether the efflux mediated by either LAT1 or LAT2 or other transporters is equal for BPA-fructose relative to TLS00192 in cellular retention tests in FaDu cells. […] Data is expressed as % residual boron content of time zero amount.

[5] = system: FaDu cells; experiment: Boron uptake of TLS00190 and TLS00178 in FaDu cells; format: cell-based, human; settings: two (2) hour incubation
From the text: as §1
as §2, with “Finally, A standard curve using 1000, 100, 10, 1 and 0 ppb of boron was used to calculate the concentration of boron in each sample.” left out
The efficiency of boron uptake of TLS00190 and TLS00178 was determined using FaDu cells. Following a two (2) hour incubation, cells were harvested and suspended in ice cold PBS and a portion was lysed in RIPA buffer and protein content determined by BCA assay. […] After two (2) hours of incubation the amount of the compounds taken up was determined based on the boron measurements.

[6] = system: FaDu cells; experiment: Cellular retention of TLS00190, TLS00178 and BPA-Fructose in FaDu cells; format: cell-based, human
Method: Subsequently, to determine whether the efflux mediated by either LAT1 or LAT2 or other transporters is equal for BPA-fructose relative to TLS00192 in cellular retention tests in FaDu cells. The “time zero” sample was immediately harvested following an initial two (2) hour incubation with the compounds. Cells were then harvested at indicated times and subjected to lysis, boron measurement, and protein content. Data is expressed as % residual boron content of time zero amount. In addition, the retention of TLS00190 and TLS00178 following initial 2 hour uptake compared to BPA-Fructose was also studied in FaDu cells.

[7] = 0.5 mM BPA-fructose as substrate, read-out: IC50 of competitor on boron uptake of BPA-Fructose
[8] = 0.5 mM TLS00192 as substrate, read-out: IC50 of competitor on boron uptake of TLS00192
[9] = twenty (20) hrs after initial 2 hour uptake

N[C@@H](Cc1ccccc1)C(=O)O [L-Phe, phenylalanine]
IC50 [1, 7]: 40 µM | IC50 [1, 8]: 430 µM

undecahydrododecaborane thiol [BSH]
5-year survival rate [2]: 58%

NC1(C(=O)O)CC2CCC1C2 (stereo not shown) [BCH, 2-aminobicyclo-(2,2,1)-heptane-2-carboxylic acid]
IC50 [1, 7]: 140 µM | IC50 [1, 8]: 800 µM

N[C@@H](Cc1ccc(O)c(B(O)O)c1)C(=O)O [TLS00192]
Km ([3]; 2 hr incubation in HBSS at 37° C.): 1970 µM | apparent Vmax ([3]; 2 hr incubation): 15.87 ng boron mg^−1 min^−1 | % residual boron content of time zero amount [4]: greater than 40%

CNC(=O)[C@@H](N)Cc1c[nH]cn1 [TLS00178]
boron uptake (ng boron per mg protein), result in words [5]: retain the ability to be transported into FaDu cancer cells | retention, cellular level remaining [6, 9]: 57%

N[C@@H](Cc1ccc(B(O)O)cc1)C(=O)O [BPA, 4-Borono-L-phenylalanine]
% residual boron content of time zero amount [4]: approximately 10%

COCCOCCOc1ccc(C[C@H](N)C(=O)O)cc1 [TLS00190]
boron uptake (ng boron per mg protein), result in words [5]: retain the ability to be transported into FaDu cancer cells | retention, cellular level remaining [6, 9]: 43% | retention, cellular level remaining ([6]; two (2) hours after initial 2 hour uptake): 14%

Nc1cc(COc2c(Cl)cc(C[C@H](N)C(=O)O)cc2Cl)c2oc(-c3ccccc3)nc2c1 [JPH203]
IC50 ([1]; 0.5 mM BPA-fructose as substrate, read-out: IC50 of inhibitor on LAT1-mediated uptake of BPA): 0.78 µM | IC50 ([1]; 0.5 mM TLS00192 as substrate, read-out: IC50 of inhibitor on LAT1-mediated uptake of TLS00192): 0.19 µM
